Measured values from publication PMC5146650, “Effect of arginine on oligomerization and stability of N-acetylglutamate synthase” (Scientific Reports, 2016).
Several values for one entry are separate records, joined by “and”; a condition that tells them apart may be missing. Equal values may be shown once.

Experiments:
mNAGS-C [1] = molecular target: T1, mNAGS-C (Mus musculus, UniProt Q8R4H7); assay: Thermofluor thermal shift, SYPRO Orange; assay type: binding; details: read-out: change in Tm at 10 mM
T1 construct: gene Nags; conserved segment only, mitochondrial targeting signal and variable segment removed
T1 sequence (Q8R4H7 84-527 limits assumed): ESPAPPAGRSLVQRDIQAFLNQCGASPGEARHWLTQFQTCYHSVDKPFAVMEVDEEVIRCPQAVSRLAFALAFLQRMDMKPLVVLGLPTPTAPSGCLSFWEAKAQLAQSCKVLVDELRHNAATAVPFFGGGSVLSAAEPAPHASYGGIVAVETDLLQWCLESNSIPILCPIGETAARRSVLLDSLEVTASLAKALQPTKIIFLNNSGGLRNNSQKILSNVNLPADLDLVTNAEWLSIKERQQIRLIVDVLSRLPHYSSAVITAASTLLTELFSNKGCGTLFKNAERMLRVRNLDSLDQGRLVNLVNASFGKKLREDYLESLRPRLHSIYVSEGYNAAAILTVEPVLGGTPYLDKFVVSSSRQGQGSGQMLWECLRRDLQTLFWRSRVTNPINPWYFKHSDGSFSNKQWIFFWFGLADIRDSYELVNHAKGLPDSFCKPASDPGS

mNAGS-M [2] = molecular target: T2, mNAGS-M (Mus musculus, UniProt Q8R4H7); assay: Thermofluor thermal shift, SYPRO Orange; assay type: binding; details: read-out: change in Tm at 10 mM
T2 construct: gene Nags; mature form, mitochondrial targeting signal removed, variable segment kept
T2 sequence (Q8R4H7 51-527): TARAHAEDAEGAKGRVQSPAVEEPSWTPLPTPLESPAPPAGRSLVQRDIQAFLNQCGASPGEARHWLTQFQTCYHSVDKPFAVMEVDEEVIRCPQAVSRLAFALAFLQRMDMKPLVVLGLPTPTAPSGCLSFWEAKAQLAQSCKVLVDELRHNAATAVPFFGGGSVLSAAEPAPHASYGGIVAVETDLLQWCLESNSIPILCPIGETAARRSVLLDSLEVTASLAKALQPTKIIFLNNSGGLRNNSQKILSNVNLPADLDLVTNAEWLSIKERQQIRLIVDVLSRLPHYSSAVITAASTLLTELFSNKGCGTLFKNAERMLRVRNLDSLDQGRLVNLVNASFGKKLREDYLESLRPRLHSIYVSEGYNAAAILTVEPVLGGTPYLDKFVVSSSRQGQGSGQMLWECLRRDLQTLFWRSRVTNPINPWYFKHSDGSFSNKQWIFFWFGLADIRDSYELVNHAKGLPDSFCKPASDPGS

MmNAGS-K = molecular target: T3, MmNAGS-K (Maricaulis maris, UniProt Q0ASS9); assay: Thermofluor thermal shift, SYPRO Orange; assay type: binding; details: read-out: change in Tm at 10 mM
T3 construct: gene Mmar10_0365
T3 sequence (Q0ASS9 1-441): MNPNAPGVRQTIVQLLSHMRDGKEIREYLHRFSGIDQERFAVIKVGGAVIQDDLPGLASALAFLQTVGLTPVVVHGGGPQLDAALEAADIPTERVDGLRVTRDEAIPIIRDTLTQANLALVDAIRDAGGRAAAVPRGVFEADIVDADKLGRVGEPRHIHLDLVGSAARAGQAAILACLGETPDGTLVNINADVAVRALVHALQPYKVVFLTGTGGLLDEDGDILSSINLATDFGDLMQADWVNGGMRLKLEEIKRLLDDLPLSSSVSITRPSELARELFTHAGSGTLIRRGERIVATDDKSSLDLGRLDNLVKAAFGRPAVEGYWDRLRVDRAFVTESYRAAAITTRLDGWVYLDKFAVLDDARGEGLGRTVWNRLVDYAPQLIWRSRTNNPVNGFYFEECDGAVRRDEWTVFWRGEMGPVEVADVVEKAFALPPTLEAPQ

mNAGS-C [3] = molecular target: T1, mNAGS-C; assay: NAGS activity assay after […] min preincubation at […]-45 °C; assay type: biochemical; details: 1 mM L-arginine; assayed at 30 °C; allosteric activator; range covers mNAGS-M and mNAGS-C
XcNAGS-K = molecular target: T4, XcNAGS-K (Xanthomonas campestris, UniProt B0RS52); assay: sedimentation velocity ultracentrifugation and Thermofluor; assay type: binding; details: 1 mM L-arginine; 10 mM Tris, 50 mM KCl, 1 mM TCEP, pH 8.0, 20 °C (ultracentrifugation); allosteric
T4 construct: gene argB
T4 sequence (B0RS52 1-447): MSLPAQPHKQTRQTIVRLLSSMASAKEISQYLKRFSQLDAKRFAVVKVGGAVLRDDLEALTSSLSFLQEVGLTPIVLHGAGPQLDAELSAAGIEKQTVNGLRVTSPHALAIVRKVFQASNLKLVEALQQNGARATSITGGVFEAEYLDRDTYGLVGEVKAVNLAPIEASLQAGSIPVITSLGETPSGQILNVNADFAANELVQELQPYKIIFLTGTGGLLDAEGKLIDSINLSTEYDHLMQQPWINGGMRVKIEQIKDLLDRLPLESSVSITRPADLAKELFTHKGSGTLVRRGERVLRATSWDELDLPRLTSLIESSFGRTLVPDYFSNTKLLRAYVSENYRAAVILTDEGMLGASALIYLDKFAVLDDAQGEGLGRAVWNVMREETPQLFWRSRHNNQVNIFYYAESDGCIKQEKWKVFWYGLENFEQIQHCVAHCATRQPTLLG

NgNAGS = molecular target: T5, NgNAGS (Neisseria gonorrhoeae, UniProt Q5FAK7); assay: Thermofluor thermal shift, SYPRO Orange; assay type: binding; details: read-out: change in Tm at 1 mM
T5 construct: gene argA; hexamer
T5 sequence (Q5FAK7 1-436): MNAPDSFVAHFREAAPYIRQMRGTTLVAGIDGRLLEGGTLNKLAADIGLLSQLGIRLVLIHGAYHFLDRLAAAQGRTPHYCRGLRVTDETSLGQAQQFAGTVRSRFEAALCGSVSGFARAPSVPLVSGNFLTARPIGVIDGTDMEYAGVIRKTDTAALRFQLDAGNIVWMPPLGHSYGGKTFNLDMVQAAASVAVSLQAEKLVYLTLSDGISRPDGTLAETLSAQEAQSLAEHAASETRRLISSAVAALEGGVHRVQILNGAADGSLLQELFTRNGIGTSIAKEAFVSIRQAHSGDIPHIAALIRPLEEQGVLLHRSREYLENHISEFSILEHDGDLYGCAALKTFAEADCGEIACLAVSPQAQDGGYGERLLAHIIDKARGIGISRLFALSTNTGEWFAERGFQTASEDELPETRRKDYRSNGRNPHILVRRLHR

mNAGS-M [4] = molecular target: T2, mNAGS-M; assay: NAGS activity assay after […] min preincubation at […]-45 °C; assay type: biochemical; details: 1 mM L-arginine; assayed at 30 °C; allosteric activator; range covers mNAGS-M and mNAGS-C
[5] = molecular target: bifunctional N-acetylglutamate synthase-kinase from Xanthomonas campestris (Xanthomonas campestris); assay: AUC; sedimentation velocity, sw isotherm fitted to a tetramer-octamer association model (octamer to tetramers); with 1 mM L-arginine; 20 °C, 50,000 rpm, 10 mM Tris, 50 mM KCl, 1 mM TCEP, pH 8.0
[6] = molecular target: bifunctional N-acetylglutamate synthase-kinase from Xanthomonas campestris (Xanthomonas campestris); assay: AUC; sedimentation velocity, c(s) distributions and sw isotherm fitted to a tetramer-octamer association model (octamer to tetramers); without L-arginine; 2-40 uM monomer, 20 °C, 50,000 rpm, 10 mM Tris, 50 mM KCl, 1 mM TCEP, pH 8.0
[7] = molecular target: bifunctional N-acetylglutamate synthase-kinase from Xanthomonas campestris (Xanthomonas campestris); assay: AUC; sedimentation velocity, global fit of raw data with explicit Lamm equation solutions and reaction kinetics, tetramer-octamer model (octamer to tetramers); without L-arginine; 35, 26, 17, 12, 9, 4 and 2 uM monomer, 20 °C, 10 mM Tris, 50 mM KCl, 1 mM TCEP

| Compound | ΔTm at 10000 µM (mNAGS-C [1]) [°C] | ΔTm at 10000 µM (mNAGS-M [2]) [°C] | ΔTm at 10000 µM (MmNAGS-K) [°C] | fold increase of specific activity at 1 mM (mNAGS-C [3]) | sedimentation velocity ultracentrifugation and Thermofluor (XcNAGS-K) | ΔTm at 1000 µM (NgNAGS) [°C] | fold increase of specific activity at 1 mM (mNAGS-M [4]) | Kd [5] [µM] | Kd [6] [µM] | stoichiometry N [6] | Kd [7] [µM] | half-life for the octamer [7] [min] | log10koff [7] |
| --- | --- | --- | --- | --- | --- | --- | --- | --- | --- | --- | --- | --- | --- |
| N=C(N)NCCC[C@H](N)C(=O)O [L-arginine] | ~5 | ~5 | ~10 | 1.5- to 4 | equilibrium between XcNAGS-K tetramers and octamers depends on the presence and binding of L-arginine | ~-2.5 | 1.5- to 4 |  |  |  |  |  |  |
| bifunctional N-acetylglutamate synthase-kinase from Xanthomonas campestris (enzyme) |  |  |  |  |  |  |  | 37 | 2.9 | 4 and 8 | 2.6 | 45 | -3.6 |
